The target of experiment [1] is T1, Complement factor B (Homo sapiens, UniProt P00751). Kind of experiment: Optical surface plasmon resonance (SPR) binding affinity assay.
Target sequence in this assay (P00751 26-764): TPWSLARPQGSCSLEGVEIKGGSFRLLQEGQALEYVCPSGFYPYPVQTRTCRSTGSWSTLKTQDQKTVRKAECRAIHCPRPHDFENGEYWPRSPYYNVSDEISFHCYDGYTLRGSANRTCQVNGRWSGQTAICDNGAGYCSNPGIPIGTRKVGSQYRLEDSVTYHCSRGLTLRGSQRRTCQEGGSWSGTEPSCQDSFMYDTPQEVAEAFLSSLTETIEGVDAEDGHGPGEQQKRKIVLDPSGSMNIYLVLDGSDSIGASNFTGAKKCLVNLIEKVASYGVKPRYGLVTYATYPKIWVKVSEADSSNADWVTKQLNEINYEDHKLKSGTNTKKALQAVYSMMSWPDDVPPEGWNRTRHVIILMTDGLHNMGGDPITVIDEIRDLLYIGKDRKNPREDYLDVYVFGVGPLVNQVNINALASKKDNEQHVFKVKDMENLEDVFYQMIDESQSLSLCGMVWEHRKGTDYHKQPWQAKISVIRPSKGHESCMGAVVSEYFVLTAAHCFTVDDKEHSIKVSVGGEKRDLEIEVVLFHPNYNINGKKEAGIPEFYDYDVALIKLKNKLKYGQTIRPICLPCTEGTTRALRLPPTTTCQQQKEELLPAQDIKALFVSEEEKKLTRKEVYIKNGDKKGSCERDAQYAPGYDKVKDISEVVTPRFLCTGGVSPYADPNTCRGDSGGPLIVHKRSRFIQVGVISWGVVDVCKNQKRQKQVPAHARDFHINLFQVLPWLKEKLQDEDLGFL
Method: The SPR experiment was conducted at 25° C. using PBS buffer supplemented with 0.05% (v/v) P20 and 5% DMSO as the running buffer. The Biacore 8K instrument from GE Healthcare was employed for analysis. The CM3 chip (GE Healthcare) was activated with 400 mM EDC and 100 mM NHS at a flow rate of 30 μL/min for 420 s.
Experiment [2] deals with T1, Complement factor B. In words: Human complement factor B ELISA assay (CVF-Bb, complement C3 protein). Set-up: followed by the addition of 0.2 μL of CVF-Bb (0.1 μmol/mL). It counts as biochemical. Particulars: CVF-Bb incubated with compound 1 hour, then complement C3 protein 37° C. 2 hours, OD 450 nm. The procedure:
The mixture was incubated at room temperature for 1 hour;
Then, 9 μL of the successfully incubated samples were taken and added to the wells of the 96T plate, followed by the addition of 1 μL complement C3 protein, and the reaction was carried out at a constant temperature of 37° C. for 2 hours;
The 9 μL of the aforementioned sample-free liquid was mixed with 1 μL of complement C3 protein as the negative control; • 10 μL of the successfully incubated sample was taken, and the inhibitory concentration was determined by ELISA. The OD value at 450 nm was measured, and a curve was plotted. The obtained data were analyzed using GraphPad Prism 7.0 software, and a Log concentration-inhibition rate curve was generated using a nonlinear regression model to calculate the IC50 value.
(In general: An ELISA detects its analyte on a solid surface through an enzyme-linked reagent.)
Target sequence in this assay (P00751 260-764 limits assumed): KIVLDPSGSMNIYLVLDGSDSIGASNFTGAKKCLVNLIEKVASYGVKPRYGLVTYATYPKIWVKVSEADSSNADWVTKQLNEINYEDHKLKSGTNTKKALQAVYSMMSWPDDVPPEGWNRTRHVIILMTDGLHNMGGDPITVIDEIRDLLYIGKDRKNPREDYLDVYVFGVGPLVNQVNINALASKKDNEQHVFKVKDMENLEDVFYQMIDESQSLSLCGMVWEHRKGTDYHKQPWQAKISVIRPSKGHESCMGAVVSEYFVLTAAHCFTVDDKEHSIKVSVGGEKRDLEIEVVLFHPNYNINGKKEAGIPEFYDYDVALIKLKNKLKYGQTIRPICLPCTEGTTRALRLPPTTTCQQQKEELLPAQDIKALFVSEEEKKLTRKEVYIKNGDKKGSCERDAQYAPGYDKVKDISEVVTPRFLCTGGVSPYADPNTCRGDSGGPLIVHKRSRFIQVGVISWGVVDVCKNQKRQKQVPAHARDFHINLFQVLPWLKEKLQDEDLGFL
Target sequence in this assay (Q91132 23-649 partner limits assumed): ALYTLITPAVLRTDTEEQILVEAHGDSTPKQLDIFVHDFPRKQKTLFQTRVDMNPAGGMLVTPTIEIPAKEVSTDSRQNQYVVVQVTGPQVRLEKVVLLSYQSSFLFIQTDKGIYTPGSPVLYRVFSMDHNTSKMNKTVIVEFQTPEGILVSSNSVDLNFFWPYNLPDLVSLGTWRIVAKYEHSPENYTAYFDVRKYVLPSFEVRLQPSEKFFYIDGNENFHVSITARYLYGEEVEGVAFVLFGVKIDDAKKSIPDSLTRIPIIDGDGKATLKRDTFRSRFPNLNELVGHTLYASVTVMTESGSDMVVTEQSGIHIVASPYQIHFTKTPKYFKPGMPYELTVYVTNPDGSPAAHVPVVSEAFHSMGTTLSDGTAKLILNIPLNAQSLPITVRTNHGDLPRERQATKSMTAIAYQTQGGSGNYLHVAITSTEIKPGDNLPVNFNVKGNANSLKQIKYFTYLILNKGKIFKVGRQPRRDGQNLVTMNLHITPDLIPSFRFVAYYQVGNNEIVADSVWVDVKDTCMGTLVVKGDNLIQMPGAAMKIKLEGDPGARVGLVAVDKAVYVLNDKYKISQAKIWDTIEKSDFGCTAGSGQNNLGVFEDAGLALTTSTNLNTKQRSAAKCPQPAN
Target sequence in this assay (Q91132 733-984 partner limits assumed): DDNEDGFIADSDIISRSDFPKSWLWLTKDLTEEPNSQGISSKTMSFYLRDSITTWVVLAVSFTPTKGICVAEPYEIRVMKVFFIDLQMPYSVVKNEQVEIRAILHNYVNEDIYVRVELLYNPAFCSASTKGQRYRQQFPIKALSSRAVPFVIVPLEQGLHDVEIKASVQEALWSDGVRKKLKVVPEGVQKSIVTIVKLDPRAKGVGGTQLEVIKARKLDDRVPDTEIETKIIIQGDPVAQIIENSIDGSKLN
Target sequence in this assay (Q91132 1264-1642 partner limits assumed): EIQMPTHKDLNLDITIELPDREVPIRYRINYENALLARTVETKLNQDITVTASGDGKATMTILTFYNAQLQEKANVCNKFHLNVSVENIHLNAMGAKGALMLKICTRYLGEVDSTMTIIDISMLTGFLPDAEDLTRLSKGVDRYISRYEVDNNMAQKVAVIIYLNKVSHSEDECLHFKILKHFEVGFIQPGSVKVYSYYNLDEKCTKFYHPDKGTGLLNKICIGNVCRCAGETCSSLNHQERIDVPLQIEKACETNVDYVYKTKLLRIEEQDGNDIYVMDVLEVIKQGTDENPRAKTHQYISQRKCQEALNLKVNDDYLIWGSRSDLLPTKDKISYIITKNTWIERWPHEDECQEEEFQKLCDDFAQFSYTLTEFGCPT

In experiment [3] the test system is LPS-induced complement activation. Kind of experiment: In vivo efficacy assay of LPS-induced complement activation in mice. Particulars: female C57BL/6J mice, LPS 100 μg intraperitoneal, PO. The procedure: Experimental objective: To investigate the inhibitory effect of the compounds of the present disclosure on complement activation in mice induced by LPS stimulation.
Experimental animals: Female C57BL/6J mice, 7 to 9 weeks old, weighing between 17 to 23 g.
Experimental procedure: 100 μg of lipopolysaccharide (LPS) in Salmonella typhimurium (Sigma) dissolved in 100 μL of sterile PBS was intraperitoneally injected to induce complement activation in mice. Negative control animals were intraperitoneally injected 100 μL of sterile PBS and administered alone by tube feeding (PO). Positive control animals were intraperitoneally injected LPS and PO drug vehicles (0.5% (w/v) methyl cellulose and 0.5% (v/v) Tween 80).
Sample collection: 0.3 mL of blood samples were collected from the orbital venous plexus. All blood samples were added to commercially available EDTA-K2 anticoagulant tubes with a specification of 1.5 mL. After collection, within half an hour, the blood sample was centrifuged at 4° C., 3000 g for 10 min to aspirate the supernatant plasma, which was put in dry ice immediately, and stored in a refrigerator at −80° C. for Western blot analysis of downstream C3d protein levels after complement activation.
Sample analysis: Mouse plasma (5 μL)+Lysis buffer (27.5 μL)+Loading buffer (12.5 μL)+Reducing buffer (5 μL) were mixed well and incubated at 100° C. for 15 min with a loading volume of 5 μL/well, i.e., a loading volume of plasma of 0.5 μL per well.
Test compounds: positive compound LNPO23, the final product of Example 158, the final products (compound 159A and compound 159B) of Example 159, and compound 11 of Example 75.

For experiment [4], the system named is PNH-like erythrocytes. In words: Alternative pathway inhibition assay of PNH-like erythrocyte. It counts as cell-based. Particulars: 1 h, AET/anti-CD55 sensitized human erythrocytes, acidified normal human serum pH 6.4, 37° C. 60 min. The text has this:
Principle: PNH, as an indication for complement inhibitors, was typically tested using the Ham test, which states that acidified serum was capable of activating the alternative pathway, leading to hemolysis of PNH erythrocytes, while normal erythrocytes remained unaffected. It was reported in the literature that AET could disrupt the complement regulatory proteins on the surface of normal human erythrocytes, resulting in PNH-like erythrocytes.
Reagents and instrument: PBS buffer, normal human serum (NHS), Alsever's solution, microplate reader, MgCl2, EGTA, EDTA, HCl, normal human erythrocytes, AET; anti-CD-55 antibody (BRIC216; Sigma)
PBS buffer: Potassium dihydrogen phosphate (KH2PO4): 0.24 g/L, disodium hydrogen phosphate (Na2HPO4): 1.44 g/L, sodium chloride (NaCl): 8 g/L, potassium chloride (KCl): 0.2 g/L, pH 7.4
PBSE buffer: PBS, 10 mM EDTA; pH 7.4
PBSMg buffer: PBS, 1 mM Mg++; pH 6.4
10× Mg-EGTA stock solution: 25 mM MgCl2, 80 mM EGTA; pH 6.4
10× EDTA stock solution: 100 mM EDTA; pH 6.4
Method: The inhibition of alternative pathway-mediated erythrocyte lysis was evaluated using an in vitro model of PNH. Normal human erythrocytes were sensitized with 2-aminoethylisothiouronium bromide (AET) to inactivate complement regulatory proteins on the cell surface and induce a PNH-like phenotype.
2 mL of normal human erythrocytes were mixed with 2 mL of Alsever's solution, washed three times with PBS, and centrifuged at 2500×g, with the upper 10% of the erythrocytes being removed each time. The washed 1 mL erythrocytes were sensitized by incubation with 4 mL of 8% w/v AET (pH 8.0) at 37° C. for 10 min, followed by three additional washes with PBS. Subsequently, the concentration of erythrocytes in PBS (erythrocyte stock solution) was adjusted with PBS such that an absorbance of 1.5-2.0 at 412 nm (indicating hemoglobin release) was achieved upon dilution of 10 μL erythrocyte stock solution with 190 μL water.
1.5 mL of the erythrocyte stock solution was mixed with anti-CD55 antibody (BRIC216; Sigma/final concentration of 6.7 μg/mL) and incubated on ice for 30 min. After being washed once with PBS, the treated erythrocytes were resuspended in PBS-Mg to the initial volume of 1.5 mL. The following AP-mediated lysis assay was performed on this erythrocyte preparation with induced PNH phenotype.
The normal human serum was acidified with 0.2 M HCl to pH 6.4, and supplemented with MgCl2 and EGTA to final concentrations of 2.5 and 8 mM, respectively. 80 μL of this serum mixture was mixed with 10 μL of PBS-Mg (negative blank) or 10 μL of samples at various concentrations. Normal human serum was acidified with 0.2 M HCl to pH 6.4, supplemented with EDTA to a final concentration of 10 mM, and 80 μL of this serum mixture was mixed with 10 μL of PBS-Mg (negative blank) as a blank positive control. The sample was incubated with serum on ice for 5 min, and then 10 μL of sensitized erythrocytes were added. The final serum concentration in the reaction mixture was approximately 64% v/v, incubated at 37° C. for 60 min, and the reaction was quenched by adding 50 μL of ice-cold PBS containing 10 mM EDTA. The remaining unlysed cells were centrifuged at 2500×g for 10 min, and 100 μL of the supernatant was transferred to a 96-well plate to measure its absorbance at 412 nm. The amount of hemoglobin released during erythrocyte lysis was thereby quantified. […] represented the relative lysis of PNH-like erythrocytes (expressed in %; set to 0% for the PC sample and 100% for the NC sample). The absorbance was measured using a microplate reader (Molecular Devices SpectraMax 3X). The IC50 value was calculated by applying nonlinear regression with GraphPad Prism 9.0 software from the percentage of hemolysis as a function of the test compound concentration.

We go through 3 compounds from patent US20260184689A1, “PIPERIDINE-SUBSTITUTED BENZOIC ACID COMPOUND, AND PHARMACEUTICAL COMPOSITION AND USE THEREOF” (SHANGHAI YISHENG BIOPHARMACEUTICAL COMPANY LIMITED, priority 2022, published 2026).

As a reminder, the Kd is the concentration at which binding is half-saturated. The low end stands for higher affinity, the high end for lower affinity. In general, IC50 refers to the concentration that gives 50% inhibition. With `CCCC1CCN(C(=O)c2c(OC)cc(C)c3[nH]ccc23)[C@H](c2ccc(C(=O)O)cc2)C1` (mixture of isomers) [Final product of Example 158, 4-((2S)-1-(5-Methoxy-7-methyl-1H-indole-4-carbonyl)-4-propylpiperidin-2-yl)benzoic acid], the Kd in experiment [1] was in the range of 5 to 20 nM. The IC50 in experiment [2] was in the range of 5 to 30 nM; in experiment [4] it was 50 to 250 nM. Further, the “inhibition of LPS-induced complement activation (plasma C3d levels), compared with LNP023” value (“inhibition … compared with LNP023” for short) in experiment [3] is given as “superior or equivalent”.

In turn, `CCO[C@H]1CCN(Nc2c(OC)cc(C)c3[nH]ccc23)[C@H](c2ccc(C(=O)O)cc2)C1` [Compound 11 of Example 75, 4-((2S,4S)-4-Ethoxy-1-((5-methoxy-7-methyl-1H-indol-4-yl)amino)piperidin-2-yl)benzoic acid] registered a Kd in experiment [1] of 5 to 20 nM. For the same compound, the results for the IC50 in experiment [2] and in experiment [4] were 10 to 30 nM and 100 to 300 nM, respectively. Moreover, in experiment [3], the “inhibition … compared with LNP023” value is given as “superior or equivalent”.

Turning to `CCCC1CCN(C(=O)c2c(OC)cc(C)c3[nH]ccc23)C(c2ccc(C(=O)O)cc2)C1` (single isomer, unassigned) [Compound 159A], the equilibrium dissociation constant (Kd) in experiment [1] lay within 5 to 20 nM. For the same compound, the IC50 was in the range of 5 to 30 nM in experiment [2] and 50 to 250 nM in experiment [4]. Also, the “inhibition … compared with LNP023” value in experiment [3] is “superior or equivalent”.
